The NIST ThermoML archive (doi:10.1016/j.jct.2018.07.025)
± gives the expanded uncertainty stated by the source.

Experiments:
[1] = Crystal; DTA
[2] = Molar enthalpy of transition or fusion; conditions: Crystal; DSC

SMILES | Normal melting temperature [1] [°C] | Molar enthalpy of transition or fusion [2] [kJ/mol]
COC(=O)N(O)c1ccccc1COc1ccn(-c2ccc(Cl)cc2)n1 | 143.30 ± 1.1 | 51.5 ± 1.3
COC(=O)N(OC)c1ccccc1COc1ccn(-c2ccc(Cl)cc2)n1 [Pyraclostrobin] | 60.60 ± 1.1 | 30.2 ± 1
